The values below come from US12474342B2, “Methods for treating cancer and the use of biomarkers as a predictor of clinical sensitivity to therapies” (CELGENE CORPORATION, priority 2016, dated 2025).

For one data set, the system named is U-937 cells. Description: Anti-proliferation CTG assay, U-937. The format is cell-based, human. As to conditions: 48 hours. As to the method: (§1) A plethora of AML cell lines were treated with serial dilutions of Compound D. IC50 value of the anti-proliferation effect of Compound D (as determined in 72-hour CTG assays) in each cell line is summarized in Table 1.
(§2) The effect of overexpression of GSPT1 on the anti-proliferative effect of Compound D and Compound E was determined in human histiocytic lymphoma cell line U937 and human leukemia cell line MOLM13. Treatment compounds (e.g., Compound D or Compound E) were titrated from 0.001 μM to 10 μM. Cell proliferation was measured by CellTiter-Glo cell viability assay at 48 hours after treatment. […] However, when exogenous GSPT1 was overproduced via the EF1α promoter, as shown in FIGS. 5A-5D, the anti-proliferative effect of Compound D and Compound E reduced.

Data set [1] addresses T1, GSPT1 (Homo sapiens, UniProt P15170+Q96SW2). Description: GSPT1 protein reduction, western analysis, KG-1. As to conditions: KG1, 200 nM, 8 or 12 hours. In kind it is cell-based. On the set-up: reduction in GSPT1 protein level was evaluated in human normal PBMCs; endogenous in cells; host or cells: primary PBMCs from normal donors (ID 4328, 4379) and AML patients (ID 11SH, 09P6). How it is done:
(§3) Cells were treated with DMSO alone, 200 nM Compound D, or 200 nM Compound E. After 8 or 12 hours, the expression levels of various cellular components along UPR or apoptosis pathways were measured. […] Reduction of BIP indicates UPR.
(§4) To further investigate the timeline of cellular events upon Compound D treatment, KG1 cells were treated with DMSO alone or 200 nM Compound D. At 2, 4, 6, 8, 10, or 12 hours, the expression levels of various cellular components along ATF4 or apoptosis pathways were measured.
In two sensitive AML cell lines, KG-1 and HL-60, both a concentration-dependent decrease in GSPT1 protein and an increase in RNA expression of ATF3, CHOP, and SRSF3 and SRSF6 NMD transcripts at the 8-hour time point were compared to caspase 3/7 activation (apoptosis) at the 24-hour (FIG. 30A [KG-1]; FIG. 30C [HL-60]) and 48-hour (FIG. 30B [KG-1]; FIG. 30D [HL-60]) time points.
The reduction in the level of GSPT1 protein was concentration-dependent over the range of 3 to 1000 nM in eight of the nine AML cell lines and over the range of 300 to 1000 nM in one relatively insensitive AML cell line. The time course of the reduction in GSPT1 by Compound D also was studied for up to 48 hours. The progressive degradation of GSPT1 over the course of 1 to 20 hours was evident in the presence of all concentrations of Compound D studied from 3 to 300 nM in HNT-34, HL-60, and ML-2 cells, with little GSPT1 remaining by 20 hours at 100 or 300 nM Compound D in HNT-34 or HL-60 cells (FIG. 34 and FIG. 35C). Time-dependent reduction in GSPT1 was also observed in KG-1 and OCI-AML2 cells at 3 to 1000 nM Compound D, with little GSPT1 remaining in KG-1 cells at 100 to 300 nM at 24 hours or in OCI-AML2 cells at 300 and 1000 nM at 24 hours (FIG. 35D). Loss of GSPT1 occurred more slowly in Kasumi-1, AML-193, and F36-P cells.
Compound D-mediated GSPT1 reduction at 8 hours was compared to induction of caspase 3/7 activation (apoptosis) at 12, 24, and 48 hour time points in these nine AML cell lines. […] A positive association (r^2=0.50; R=0.71; p value=4.86E-002) was observed between the level of GSPT1 reduction and apoptosis induction in the AML cell panel (FIG. 36), with >90% GSPT1 reduction correlating with induction of apoptosis.

Another data set deals with MOLM-13 cells. Description: Anti-proliferation CTG assay, MOLM-13. In kind it is cell-based, human. As to conditions: 48 hours. How it is done: as §1, §2
Data set [2] relates to ATF3, DDIT3, cleaved Caspases, cleaved PARP. The data set can be described thus: UPR and apoptosis pathway components in KG1 cells. In kind it is cell-based, human. The note with it: KG1, 200 nM, 8 or 12 hours. As to the method: Cells were treated with DMSO alone or 200 nM Compound D. After 2, 4, or 6 hours, the expression levels of various cellular components along UPR or apoptosis pathways were measured. […] Reduction of BIP indicates UPR.
as §3, §4

The test system of another data set is OCI-AML3 cells. Description: Anti-proliferation CTG assay, OCI-AML3. The format is cell-based, human. The note with it: AML3 parental or control shRNA cells, 0.0001 μM to 1 μM, two days. How it is done: as §1
The effect of depletion of GSPT1 on the anti-proliferative effect of compound Compound D and Compound E was also determined in human acute myelogenous leukemia cell lines AML and KG1. Cells were infected with lentiviral vectors expressing control shRNA, shGSPT1-1 or shGSPT1-3 for 7 days and then treated with DMSO, Compound D or Compound E in a titration from 0.0001 μM to 1 μM. Two days after treatment, cell proliferation was measured by CellTiter-Glo cell viability. […] Both shGSPT1-1 and shGSPT1-3 reduced the expression of GSPT1, eRF1, and slightly of CRBN.

The target of data set [3] is T1, GSPT1. Description: GSPT1 protein reduction, western analysis, normal PBMCs. As to conditions: PBMC, 1 nM to 1000 nM, 20 hours.
Description: PBMC were treated with 1 nM, 10 nM, 100 nM, or 1000 nM of Compound D or Compound E for 20 hours.
Another data set concerns KG-1 cells. The data set can be described thus: Anti-proliferation CTG assay, KG-1. In kind it is cell-based, human. As to conditions: KG1 parental or control shRNA cells, 0.0001 μM to 1 μM, two days. How it is done:
The effect of depletion of GSPT1 on the anti-proliferative effect of compound Compound D and Compound E was also determined in human acute myelogenous leukemia cell lines AML and KG1. […]

The subject of another data set is p-eIF2α. The data set can be described thus: p-eIF2α immunoblot, OCI-AML2. As to conditions: 300 μg/ml G418 or 200 nM Compound D. The format is cell-based, human. How it is done: (§5) It is known that amino acid starvation causes GCN2 activation, which phosphorylates eIF2α. Because GSPT1 mediates normal translation termination, it is hypothesized that depletion of GSPT1 by Compound D may cause readthrough of stop codons. Whether the translational readthrough induced by Compound D contributes to the increased levels of p-eIF2α was investigated. OCI-AML2 cells stably expressing the Fluc/Nluc-G36A readthrough reporter were treated with 300 μg/ml G418 or 200 nM Compound D for 2, 4, 6, 8, 10, 12, or 16 hours. The levels of p-eIF2α were measured by immunoblot analysis. AML2 readthrough assay was conducted to measure the readthrough reporter.
A general note: Immunoblotting shows a protein as a band on a membrane.

The test system of data set [4] is translational readthrough. Description: AML2 readthrough assay (Fluc/Nluc-G36A reporter), OCI-AML2. The format is cell-based, human. As to conditions: 300 μg/ml G418 or 200 nM Compound D. How it is done:
as §5

Data set [5] has as its target T1, GSPT1. The data set can be described thus: GSPT1 degradation in NB4 cell line. In kind it is cell-based. Also on record: endogenous in cells.
In another data set the target is IKZF1 (Homo sapiens, UniProt Q13422+Q96SW2).
Chain of IKZF1 (Q13422 whole entry): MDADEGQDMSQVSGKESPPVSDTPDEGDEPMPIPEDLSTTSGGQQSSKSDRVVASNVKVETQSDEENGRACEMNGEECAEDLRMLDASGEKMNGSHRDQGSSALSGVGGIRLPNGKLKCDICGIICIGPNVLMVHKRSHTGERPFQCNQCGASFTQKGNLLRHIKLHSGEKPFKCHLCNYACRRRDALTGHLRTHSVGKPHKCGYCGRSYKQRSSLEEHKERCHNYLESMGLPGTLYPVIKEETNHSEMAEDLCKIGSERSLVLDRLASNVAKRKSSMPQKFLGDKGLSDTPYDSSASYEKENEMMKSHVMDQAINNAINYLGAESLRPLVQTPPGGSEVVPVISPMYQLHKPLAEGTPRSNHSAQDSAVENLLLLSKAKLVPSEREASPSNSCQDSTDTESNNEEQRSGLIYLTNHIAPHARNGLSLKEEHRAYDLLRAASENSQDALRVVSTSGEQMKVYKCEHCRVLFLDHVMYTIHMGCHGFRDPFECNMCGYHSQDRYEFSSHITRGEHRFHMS
Chain of IKZF1 (Q96SW2 whole entry): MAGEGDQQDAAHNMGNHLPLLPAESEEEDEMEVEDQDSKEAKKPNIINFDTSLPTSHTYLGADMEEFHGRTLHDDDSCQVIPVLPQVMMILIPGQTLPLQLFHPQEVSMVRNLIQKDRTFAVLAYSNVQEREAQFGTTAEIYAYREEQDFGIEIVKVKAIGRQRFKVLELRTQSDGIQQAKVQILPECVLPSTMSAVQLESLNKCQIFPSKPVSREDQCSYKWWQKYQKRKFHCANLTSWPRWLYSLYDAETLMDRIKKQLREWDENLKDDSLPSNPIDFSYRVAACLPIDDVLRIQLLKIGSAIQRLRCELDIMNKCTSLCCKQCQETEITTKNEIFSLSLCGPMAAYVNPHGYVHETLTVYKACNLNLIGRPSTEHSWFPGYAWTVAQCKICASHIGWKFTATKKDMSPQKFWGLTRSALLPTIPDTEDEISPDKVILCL
Chain of IKZF1 (Q16531 whole entry partner): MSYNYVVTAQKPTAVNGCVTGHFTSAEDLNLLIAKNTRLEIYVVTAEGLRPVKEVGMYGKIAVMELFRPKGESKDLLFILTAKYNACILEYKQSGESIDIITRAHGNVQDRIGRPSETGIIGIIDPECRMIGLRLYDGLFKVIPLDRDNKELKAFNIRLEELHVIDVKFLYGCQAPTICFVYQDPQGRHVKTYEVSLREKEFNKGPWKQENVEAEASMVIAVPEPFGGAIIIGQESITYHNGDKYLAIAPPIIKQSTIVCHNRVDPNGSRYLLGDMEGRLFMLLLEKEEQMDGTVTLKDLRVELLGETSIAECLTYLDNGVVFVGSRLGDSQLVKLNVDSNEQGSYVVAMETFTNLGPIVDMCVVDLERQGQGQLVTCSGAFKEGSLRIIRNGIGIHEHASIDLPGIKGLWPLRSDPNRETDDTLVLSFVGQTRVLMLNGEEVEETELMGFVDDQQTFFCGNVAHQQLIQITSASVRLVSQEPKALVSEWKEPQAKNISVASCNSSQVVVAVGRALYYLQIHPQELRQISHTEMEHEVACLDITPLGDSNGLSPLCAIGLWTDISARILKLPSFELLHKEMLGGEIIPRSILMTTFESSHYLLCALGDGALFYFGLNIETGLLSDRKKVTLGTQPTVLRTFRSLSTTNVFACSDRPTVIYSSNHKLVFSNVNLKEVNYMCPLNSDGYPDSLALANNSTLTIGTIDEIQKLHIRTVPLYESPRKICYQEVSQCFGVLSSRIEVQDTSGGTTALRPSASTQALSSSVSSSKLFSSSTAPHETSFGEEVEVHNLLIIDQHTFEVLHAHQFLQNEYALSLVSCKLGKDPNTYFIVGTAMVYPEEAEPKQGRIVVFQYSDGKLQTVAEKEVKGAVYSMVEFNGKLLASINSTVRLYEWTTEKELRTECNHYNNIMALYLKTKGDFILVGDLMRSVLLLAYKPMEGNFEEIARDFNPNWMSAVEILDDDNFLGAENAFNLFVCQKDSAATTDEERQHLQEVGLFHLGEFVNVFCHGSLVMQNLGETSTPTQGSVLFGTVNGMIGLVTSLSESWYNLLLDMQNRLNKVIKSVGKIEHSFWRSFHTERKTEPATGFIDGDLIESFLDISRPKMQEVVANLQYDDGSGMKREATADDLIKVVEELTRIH

T1 sequence (P15170 1-637 isoform P15170-3): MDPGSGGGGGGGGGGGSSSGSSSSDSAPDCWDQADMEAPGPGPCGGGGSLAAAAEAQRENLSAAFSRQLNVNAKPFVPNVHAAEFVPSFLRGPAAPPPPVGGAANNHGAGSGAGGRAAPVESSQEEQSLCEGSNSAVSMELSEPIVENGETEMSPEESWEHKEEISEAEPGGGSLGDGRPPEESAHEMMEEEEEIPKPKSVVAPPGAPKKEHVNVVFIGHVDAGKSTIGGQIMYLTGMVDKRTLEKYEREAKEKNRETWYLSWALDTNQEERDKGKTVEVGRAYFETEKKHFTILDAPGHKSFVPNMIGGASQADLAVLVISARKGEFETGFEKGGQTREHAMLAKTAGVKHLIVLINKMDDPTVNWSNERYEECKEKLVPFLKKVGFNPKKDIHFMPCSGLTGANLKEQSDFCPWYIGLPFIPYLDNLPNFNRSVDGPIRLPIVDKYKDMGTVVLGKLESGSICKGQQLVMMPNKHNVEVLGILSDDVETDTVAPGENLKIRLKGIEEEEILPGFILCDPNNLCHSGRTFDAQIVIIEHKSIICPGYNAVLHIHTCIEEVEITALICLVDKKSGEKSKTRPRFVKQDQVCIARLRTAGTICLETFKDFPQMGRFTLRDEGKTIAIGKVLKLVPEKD
T1 sequence (Q96SW2 whole entry): as the sequence (Q96SW2 whole entry) above
T1 sequence (Q16531 whole entry partner): as the sequence (Q16531 whole entry partner) above

Turning to `O=C1CCC(N2Cc3cc(CNC(=O)C(F)(F)c4ccc(F)cc4)ccc3C2=O)C(=O)N1` (stereo not shown) [Compound E, N-((2-(2,6-dioxopiperidin-3-yl)-1-oxoisoindolin-5-yl)methyl)-2,2-difluoro-2-(4-fluorophenyl)acetamide], the anti-proliferative effect result in the data set on U-937 cells (U937 CRBN -/- cells) and with MOLM-13 cells (MOLM13 CRBN -/- cells) was “completely abolished” throughout. The “cell proliferation (CellTiter-Glo)” value in the data set with U-937 cells (U937 parental cells, 0.001 μM to 10 μM) is “inhibited cell proliferation”; in the data set with MOLM-13 cells (MOLM13 parental cells, 0.001 μM to 10 μM), “inhibited cell proliferation”; with OCI-AML3 cells, “exhibited anti-proliferative effect, particularly at high concentration”; in the data set on KG-1 cells, “exhibited anti-proliferative effect, particularly at high concentration”. Moreover, the “degradation of GSPT1” value at GSPT1 [1] was “induced degradation”. The “level of ATF3, DDIT3, cleaved Caspase-3, cleaved Caspase-8, and cleaved PARP” value in data set [2] is listed as “increased the level”. Moreover, the “expression of GSPT1” value on GSPT1 [3] was “decreased the expression of GSPT1”.

Turning to `CN[C@@H]1[C@@H](O)[C@@H](O[C@@H]2[C@@H](O)[C@H](O[C@H]3O[C@H]([C@@H](C)O)[C@@H](O)[C@H](O)[C@H]3N)[C@@H](N)C[C@H]2N)OC[C@]1(C)O` [Compound G418, G418, reference compound], the “levels of p-eIF2α” value with p-eIF2α is recorded as “little effect”. In addition, the translational readthrough result in data set [4] is reported as “induced translational readthrough at a comparable level”.

`Nc1cccc2c1C(=O)N(C1CCC(=O)NC1=O)C2=O` (stereo not shown) [pomalidomide, reference compound]: the “effect on GSPT1 level” value at GSPT1 [5] was “no significant effect”. Also, on IKZF1, the “effect on IKZF1 level” value is reported as “induced degradation of IKZF1 at much lower concentrations than Compound D”.
